Read-outs that look alike come from different tables or passages of the source. No end group written: not given here.
B1: thaumatin (protein)
chain: ATFEIVNRCSYTVWAAASKGDAALDAGGRQLNSGESWTINVEPGTKGGKIWARTDCYFDDSGSGICKTGDCGGLLRCKRFGRPPTTLAEFSLNQYGKDYIDISNIKGFNVPMDFSPTTRGCRGVRCAADIVGQCPAKLKAPGGGCNDACTVFQTSEYCCTTGKCGPTEYSRFFKRLCPDAFSYVLDKPTTVTCPGSSNYRVTFCPTA
modifications: Eight disulfides
notes: sweet-tasting plant protein, E957

Target: T1, human TAS1R2-WT/TAS1R3-A735T (Homo sapiens, UniProt Q7RTX0+Q8TE23, A735T)
T1 construct: expressed in transfected cells; host or cells: HEK293T stably expressing Gα16gust44
T1 sequence (Q8TE23 20-839): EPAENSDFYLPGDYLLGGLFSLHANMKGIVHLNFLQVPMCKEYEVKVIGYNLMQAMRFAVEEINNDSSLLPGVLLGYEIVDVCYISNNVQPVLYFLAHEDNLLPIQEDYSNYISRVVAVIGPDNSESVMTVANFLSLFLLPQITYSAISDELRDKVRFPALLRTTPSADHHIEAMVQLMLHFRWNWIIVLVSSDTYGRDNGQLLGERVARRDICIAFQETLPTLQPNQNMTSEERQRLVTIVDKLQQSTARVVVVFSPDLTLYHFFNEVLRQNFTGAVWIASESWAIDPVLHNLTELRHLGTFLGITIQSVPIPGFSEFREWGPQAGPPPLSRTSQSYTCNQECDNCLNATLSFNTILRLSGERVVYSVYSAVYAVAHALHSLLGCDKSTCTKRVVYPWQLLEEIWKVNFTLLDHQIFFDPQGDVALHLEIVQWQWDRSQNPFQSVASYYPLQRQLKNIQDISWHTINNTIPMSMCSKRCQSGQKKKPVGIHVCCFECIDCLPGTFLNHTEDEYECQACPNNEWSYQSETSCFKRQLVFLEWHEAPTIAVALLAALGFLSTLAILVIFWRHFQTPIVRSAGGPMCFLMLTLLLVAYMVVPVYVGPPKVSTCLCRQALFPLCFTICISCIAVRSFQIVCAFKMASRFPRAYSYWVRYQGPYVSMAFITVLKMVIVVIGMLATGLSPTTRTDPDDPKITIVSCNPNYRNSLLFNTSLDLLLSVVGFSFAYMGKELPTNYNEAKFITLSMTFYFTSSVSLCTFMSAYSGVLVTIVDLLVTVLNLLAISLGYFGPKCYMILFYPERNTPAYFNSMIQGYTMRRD
T1 sequence (Q7RTX0 21-852 A735T): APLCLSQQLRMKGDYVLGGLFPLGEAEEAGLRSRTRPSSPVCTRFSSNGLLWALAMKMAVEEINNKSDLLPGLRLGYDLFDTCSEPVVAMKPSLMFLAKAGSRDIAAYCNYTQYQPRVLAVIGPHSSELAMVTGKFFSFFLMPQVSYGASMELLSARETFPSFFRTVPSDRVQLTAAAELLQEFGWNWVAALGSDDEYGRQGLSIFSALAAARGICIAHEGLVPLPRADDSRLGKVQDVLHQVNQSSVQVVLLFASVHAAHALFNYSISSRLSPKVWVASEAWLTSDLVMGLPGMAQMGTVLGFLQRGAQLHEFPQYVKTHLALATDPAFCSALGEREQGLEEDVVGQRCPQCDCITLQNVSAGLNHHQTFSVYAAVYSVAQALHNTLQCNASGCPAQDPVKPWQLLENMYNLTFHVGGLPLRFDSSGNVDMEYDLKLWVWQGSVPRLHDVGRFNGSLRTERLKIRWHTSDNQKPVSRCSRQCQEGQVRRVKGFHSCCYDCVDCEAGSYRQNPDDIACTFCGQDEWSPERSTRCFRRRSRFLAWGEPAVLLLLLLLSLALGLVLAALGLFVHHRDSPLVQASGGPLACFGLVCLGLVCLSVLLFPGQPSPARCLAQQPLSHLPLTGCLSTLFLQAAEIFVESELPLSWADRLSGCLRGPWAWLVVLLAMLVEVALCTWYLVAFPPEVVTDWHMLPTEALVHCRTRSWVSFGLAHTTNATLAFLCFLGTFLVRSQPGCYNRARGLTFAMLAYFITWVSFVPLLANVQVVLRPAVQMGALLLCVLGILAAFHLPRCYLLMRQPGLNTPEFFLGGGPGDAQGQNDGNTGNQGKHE
Experiment: Calcium mobilisation assay, TAS1R2-WT with TAS1R3 variant A735T
Type: cell-based
Conditions: for Max ΔF/F0: maximal signal amplitude
Description: The coding sequences for TAS1R2 and TAS1R3 were commercially synthesised, and the human codon was optimised for expression in human cells. The coding sequences of human TAS1R2 and TAS1R3 were subcloned and inserted into the mammalian expression vectors pcDNA6/myc-HisA and pcDNA4/myc-HisA (Invitrogen; Thermo Fisher Scientific; Illkirch, France) between the EcoRI and NotI restriction sites, generating the plasmids pcDNA6-TAS1R2 and pcDNA4-TAS1R3, respectively. To increase protein expression in mammalian cells, an upstream start codon was used, which was a sequence called MAX, corresponding to the QBI SP163 element also described in pcDNA4-HisMax (Invitrogen; Thermo Fisher Scientific; Illkirch, France). To measure the expression level of the receptor by immunohistochemistry, we used the FLAG sequence ([…]) in the C-terminal position, which encodes the FLAG tag epitope. SNP variants of TAS1R2 and TAS1R3 were constructed based on […], respectively, using site-directed mutagenesis (Genewiz; Leipzig, Germany).
The HEK293T cells were kindly provided by Jay P. Slack (Givaudan Flavors Corporation; Cincinnati, OH, USA). HEK293T cells stably transfected with Gα16gust44 [43, 67] were seeded in poly-D-lysine-coated clear-bottom black 96-well plates (0.35 × 10^5 cells/well) in high-glucose DMEM supplemented with 2 mM GlutaMAX, 10% dialysed foetal bovine serum with penicillin/streptomycin and G418 (400 μg/mL) at 37 °C and 6.3% CO2 in a humidified atmosphere as previously reported. […] As a negative control, HEK293T cells were mock-transfected with the empty expression vector. After a further 24 h of incubation, the HEK293T cells were washed with C1 buffer (130 mM NaCl, 5 mM KCl, 10 mM HEPES pH 7.4 and 2 mM CaCl2). The 96-well plates containing the cells were then stimulated with sweet-tasting compounds. […] Different concentration ranges were tested depending on the sweet compound injected. The Ca^2+ changes were expressed as fractional changes in fluorescent light intensity: ΔF/F = (F − F0)/F0, where F was the fluorescent light intensity at each point, and F0 was the value of emitted fluorescent light prior to stimulus application. To calculate dose–response relationships, the changes in fluorescence upon stimulus application were averaged, mock-subtracted and baseline-corrected. The dose–response data obtained were adjusted using a 4-parameter logistic equation. The half-maximal effective concentrations (EC50 values) and maximal signal amplitudes were calculated using SigmaPlot software (version 15.0) (Systat Software; San Jose, CA, USA).
For in vitro calcium mobilisation assay performed on hTAS1R2-SNPs, hTAS1R3-SNPs and mTAS1R3-I60T, 6 to 7 concentrations were tested for each sweet compound, plus buffer alone. All concentration–receptor combinations were measured in duplicate, and each experiment was repeated at least 4 times (8 wells/concentration). Results were expressed for each concentration as ΔF/F mean ± SEM and represented as dose–response curves.

Molecule	R1 = Variant EC50/WT EC50	Max ΔF/F0	EC50 (read-out: EC50)	EC50 (brazzein)
CC1=CC(=O)NS(=O)(=O)O1 [Acesulfame K, acesulfame K]	1.1	0.47 ± 0.02	685 ± 56 µM	
O=S(=O)(O)NC1CCCCC1 [Cyclamate, cyclamate]			1870 ± 32 µM	
C[C@H](CC[C@@H](O[C@@H]1O[C@H](CO[C@@H]2O[C@H](CO)[C@@H](O)[C@H](O)[C@H]2O)[C@@H](O)[C@H](O)[C@H]1O[C@@H]1O[C@H](CO)[C@@H](O)[C@H](O)[C@H]1O)C(C)(C)O)[C@H]1CC[C@@]2(C)[C@@H]3CC=C4[C@@H](CC[C@H](O[C@@H]5O[C@H](CO[C@@H]6O[C@H](CO)[C@@H](O)[C@H](O)[C@H]6O)[C@@H](O)[C@H](O)[C@H]5O)C4(C)C)[C@]3(C)[C@H](O)C[C@]12C [Mogroside V, mogroside V]	0.9	1.17 ± 0.03	28.7 ± 2.2 µM	
COc1ccc(CCC(=O)c2c(O)cc(O[C@@H]3O[C@H](CO)[C@@H](O)[C@H](O)[C@H]3O[C@@H]3O[C@@H](C)[C@H](O)[C@@H](O)[C@H]3O)cc2O)cc1O [NHDC, neohesperidin dihydrochalcone]	0.8	1.00 ± 0.01	42.2 ± 1.4 µM	
COC(=O)[C@H](Cc1ccccc1)NC(=O)[C@H](CC(=O)O)NCCC(C)(C)C [Neotame]	0.8	0.61 ± 0.02	0.93 ± 0.07 µM	
C=C(C)[C@@H]1CC=C(/C=N/O)CC1 [Perillartine, perillartine]	0.9	1.56 ± 0.23	12.6 ± 5.9 µM	
C=C1C[C@@]23CC[C@H]4[C@@](C)(CCC[C@@]4(C)C(=O)O[C@@H]4O[C@H](CO)[C@@H](O)[C@H](O[C@@H]5O[C@H](CO)[C@@H](O)[C@H](O)[C@H]5O)[C@H]4O[C@@H]4O[C@H](CO)[C@@H](O)[C@H](O)[C@H]4O)[C@@H]2CC[C@]1(O[C@@H]1O[C@H](CO)[C@@H](O)[C@H](O[C@@H]2O[C@H](CO)[C@@H](O)[C@H](O)[C@H]2O)[C@H]1O[C@@H]1O[C@H](CO)[C@@H](O)[C@H](O)[C@H]1O)C3 [Rebaudioside M, rebaudioside M]	0.6	1.24 ± 0.04	23 ± 1.9 µM	
OC[C@H]1O[C@H](O[C@]2(CCl)O[C@H](CCl)[C@@H](O)[C@@H]2O)[C@H](O)[C@@H](O)[C@H]1Cl [Sucralose]	1.4	0.70 ± 0.01	151 ± 4 µM	
brazzein (QDKCKKVYENYPVSKCQLANQCNYDCKLDKHARSGECFYDEKRNLQCICDYCEY; ends and bridges not checked; cysteine pairing not given here; UniProt P56552 1-54, looked up) [sweet-tasting protein obtained by recombinant production using the yeast Pichia pastoris]	0.7	0.90 ± 0.05		82.7 ± 14.9 µg/mL
thaumatin	0.7	0.70 ± 0.06		
B1			7.2 ± 1.5 µM	

Reference: paper PMC11945486, “TAS1R2/TAS1R3 Single-Nucleotide Polymorphisms Affect Sweet Taste Receptor Activation by Sweeteners: The SWEET Project” (Nutrients, 2025)
